Patent publication US9567347B2, “Use of small molecule inhibitors targeting the interaction between RAC GTPase and p67(phox)” (CHILDREN'S HOSPITAL MEDICAL CENTER, priority 2012, dated 2017)
Changes are numbered by the printed parent chain.

Columns and labels:
p67R38Q = molecular target: T1, p67R38Q (Homo sapiens, UniProt P19878, R38Q); assay: microscale thermophoresis binding to p67phox R38Q mutant; details: residue critical for Rac1-GTP binding
T1 construct: using the pET30-HIS p67(1-212) plasmid; His; made in house; host or cells: E. coli BL21(DE3)
T1 sequence (P19878 1-212 R38Q): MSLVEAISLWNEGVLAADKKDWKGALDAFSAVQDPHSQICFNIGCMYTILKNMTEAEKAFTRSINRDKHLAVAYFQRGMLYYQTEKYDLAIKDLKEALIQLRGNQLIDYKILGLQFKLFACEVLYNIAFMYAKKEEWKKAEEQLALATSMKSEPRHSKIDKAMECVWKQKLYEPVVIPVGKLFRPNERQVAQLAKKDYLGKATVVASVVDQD
Method: The p67^phox protein was expressed in BL21(DE3) bacteria (Stratagene) using the pET30-HIS p67(1-212) plasmid. Protein was purified using the QIAexpress Ni-NTA kit (Qiagen) or the GST Bind Resin Chromatography Kit (Novagen) for RacV12 and RacWT proteins. Mutagenesis was carried out using the Quick Change Lightening Site Directed Mutagenesis Kit (Stratagene).
(§1) Proteins were labeled for microscale thermophoresis using the Monolith NT Protein Labeling Kit Red (Nano Temper Technologies) as recommended by the manufacturer. Binding reactions were carried out using the Monolith NT. 115 (Nano Temper Technologies). Binding data was analyzed using Graphpad Prizm to estimate Kd values. The arbitrary fluorescence value from the thermophoresis plots for the smallest compound titration was subtracted from every other data point (Delta depletion) prior to normalization to a Vmax of 100. In thermophoresis plots where there was no binding, a curve could not be fit and therefore no Vmax could be assigned. In these instances the highest delta depletion value was set to 100 and all data were normalized accordingly.
Next, to perform a competition binding, p67^phox protein was first incubated with either 5 μM Phox-I1 or an equal volume of vehicle control for 15 min prior to titration of purified Rac1V12 protein. […]

[1] = molecular target: T2, p67^phox binding to Rac1V12 (Homo sapiens, UniProt P19878); assay: competition binding of p67phox with Rac1V12 by microscale thermophoresis; details: 5 μM, 15 min prior to titration of Rac1V12
T2 construct: using the pET30-HIS p67(1-212) plasmid; His; made in house; host or cells: E. coli BL21(DE3) for p67phox
T2 sequence (P19878 1-212): T1 sequence (P19878 1-212 R38Q) with Q38R
Method: as §1
Next, to perform a competition binding, p67^phox protein was first incubated with either 5 μM Phox-I1 or an equal volume of vehicle control for 15 min prior to titration of purified Rac1V12 protein. […] Thus, Phox-I1 binding to p67^phox is specific and not due to nonspecific effects, such as aggregation.

[2] = tested on: primary murine neutrophils; assay: H2-DCFDA FACS ROS production assay in primary murine neutrophils; format: cell-based, mouse; details: 10 μM and 20 μM
Method: HL-60 cells were propagated in RPMI 1640 medium containing 10% heat inactivated fetal bovine serum, 2 mM L-glutamine, 100 U/mL penicillin/streptomycin at 37° C. in air containing 5% CO2. For differentiation, HL-60 cells were cultured in 1.3% dimethyl sulfoxide (DMSO) as previously described (Servant, G., et al. (1999) Mol Biol Cell 10, 1163-1178, hereby incorporated by reference in its entirety). Primary murine neutrophils were isolated from C57Bl/6 mouse bone marrow according to a published protocol (Filippi et al., (2004) Nat Immunol 5, 744-751, hereby incorporated by reference in its entirety) using a discontinuous Percoll (Pharmacia) gradient and were utilized immediately in experiments. […]
Cells (5×10^5) were harvested and processed for Annexin V/7AAD staining according to manufacturer's protocol (Becton Dickinson). Flow cytometry data were acquired on a FACS Canto bench-top flow cytometer (Becton Dickinson) and the cell cycle distributions were determined by […] using Flo-Jo software (Bosco et al (2010) Blood 115, 3320-3328, hereby incorporated by reference in its entirety). […] Cells were then stimulated with 10 μM fMLP (Sigma), 1 mM CaCl2, and 1.5 mM MgCl2 for 15 minutes prior to wash and FACS analysis for mean fluorescence intensity. […]

binding to p67^phox R38 mutant (p67R38Q): disrupted the binding ability
Structure (SMILES): COc1ccc2c(c1)C1C=C(c3ccccc3)NN1C(c1cccc([N+](=O)[O-])c1)O2 (stereo not drawn) [Phox-I1]
competition with Rac1V12 for p67^phox [1]: disruption of p67^phox binding to Rac1V12 | inhibition of fMLP-stimulated ROS production [2]: able to inhibit ROS production nearly as well as DPI at 100 μM concentration
